# Test results taken from patent US20070099888A1, “Inflammation Inhibitor Comprising Zinc Salt of Acylamino Acid” (priority 2004, published 2007).
# System: AP-1
# Test: Effect of the zinc salt of acylamino acid on AP-1 activation by ultraviolet light (gel shift assay)
# Format: cell-based
# Conditions: human dermal fibroblasts; 50 μM test compound added 18 hours before UVA 20 J/cm2; nuclear protein collected after 4 to 5 hours
# Experimental: After 18 hours, the culture medium was replaced with a phenol red-free medium. By using […]-80 (manufactured by Toshiba Medical Supply Co., Ltd.), the fibroblasts were irradiated with ultraviolet light (UVA: 20 J/cm2). After 4 to 5 hours, the cells were collected, and a nuclear protein was extracted by a standard method. With regard to the obtained nuclear protein, activated AP-1 was detected by a gel shift assay. By measuring the radioactivity value of the AP-1 band using a bioimaging analyzer, BAS2000 (manufactured by Fuji Film Co., Ltd.), the amount of AP-1 was quantified. The inhibition ratio of activation of AP-1 of the test compound was calculated by the following formula. […] A1: radioactivity value of AP-1 band with addition of test compound […] A3: radioactivity value of AP-1 band without addition of test compound and without ultraviolet irradiation
row,SMILES,Inhibition ratio of activation of AP-1 [%]
1,CCCCCCCCCCCC(=O)[O-].CCCCCCCCCCCC(=O)[O-].[Zn+2] [Zinc salt of lauric acid],9.1
2,N[C@@H](CCC(=O)[O-])C(=O)[O-].[Zn+2] [Zinc salt of L-glutamic acid],2.4
3,CCCCCCCCCCCC(=O)N[C@@H](CCC(=O)[O-])C(=O)[O-].[Zn+2] [Zinc salt of N-lauroyl-L-glutamic acid],89.6
4,NCC(=O)[O-].NCC(=O)[O-].[Zn+2] [Zinc salt of glycine],−72.8
5,CCCCCCCCCCCC(=O)NCC(=O)[O-].CCCCCCCCCCCC(=O)NCC(=O)[O-].[Zn+2] [Zinc salt of N-lauroyl glycine],59.2
6,CCCCCCCCCCCC(=O)N[C@@H](Cc1c[nH]cn1)C(=O)[O-].CCCCCCCCCCCC(=O)N[C@@H](Cc1c[nH]cn1)C(=O)[O-].[Zn+2] [Zinc salt of N-lauroyl-L-histidine],54.8
